Reference: patent US20240385180A1, “PRODUCTION OF ORGANOID DERIVED FROM CTC OF SMALL CELL LUNG CANCER PATIENT, AND IGF1R INHIBITOR AS A MOLECULAR TARGET DRUG FOR SMALL CELL LUNG CANCER” (KEIO UNIVERSITY, priority 2021, published 2024)

Assays:
[1] = system: IGF-dependent small cell lung cancer organoids; assay: Effect of IGF1R inhibitor in vitro: number of living cells (CellTiter-Glo); assay type: cell-based, human; conditions: 0.1, 1, 10, 100 μM in complete medium, fifth day after adding the drug, vs DMSO
Procedure: An IGF1R inhibitor was added to the medium of small cell lung cancer organoids, and the effect on the growth of small cell lung cancer organoids was investigated. As small cell lung cancer organoids, a plurality of types of each of IGF-dependent small cell lung cancer organoid lines and IGF-independent small cell lung cancer organoid lines were used. Furthermore, linsitinib (CAS number: 867160-71-2) was used as an IGF1R inhibitor. In addition, the number of living cells was measured using a commercially available kit (product name “CellTiter-Glo”, Promega). A small cell lung cancer organoid was dissociated into a single cell using TrypLE Express (Thermo Fisher Scientific), and further filtered using a 20 μm cell strainer. Then, 3×10^3 per well cells were seeded and cultured in complete medium added with 0.1, 1, 10, and 100 μM lincitinib. In addition, as a control, a group in which dimethyl sulfoxide (DMSO), which was used as a solvent for linsitinib, was added was also prepared. The number of living cells was measured on the fifth day after adding the drug.

[2] = system: IGF-dependent small cell lung cancer organoids; assay: In vitro apoptosis assay (Annexin V-FITC / propidium iodide flow cytometry); assay type: cell-based, human; conditions: 1 μM, cultured for 5 days, vs DMSO
Procedure: An IGF1R inhibitor was added to the medium of small cell lung cancer organoids, and the occurrence of apoptosis was measured. First, a small cell lung cancer organoid was dissociated into a single cell using TrypLE Express (Thermo Fisher Scientific), further, filtered using a 20 μm cell strainer. Next, add 5×10^4 cells per well were seeded to a […], and cultured for 5 days in the presence of 1 μM IGF1R inhibitor or 1 μM FGFR inhibitor. DMSO was added to the control cell culture medium. Subsequently, using a commercially available kit (product name “TACS Annexin V-FITC Apoptosis Detection Kit”, R&D System), the induction of apoptosis was measured by flow cytometry using the BD FACSCalibur system (Becton Dickinson). FIG. 10 is a graph showing the results of the flow cytometry. In FIG. 10, the propidium iodide-positive and Annexin V-positive cells are the cells in which apoptosis was induced.

[3] = system: KOR317 line (YAP1 positive subtype, IGF-dependent small cell lung cancer organoid); assay: Effect of IGF1R inhibitor in vivo: tumor volume in mice transplanted with KOR317 line; conditions: KOR317 (YAP1-positive, IGF-dependent) subcutaneous in NOD/Shi-scid, IL-2Rγ mice; 50 mg/kg once a day, 5 days a week, 5 weeks; vs vehicle
Procedure: (§1) Specifically, first, small cell lung cancer organoids (KOR317 line and KOR457 line) were peeled off from Matrigel (registered trademark) using cell recovery solution (BD Bioscience). The peeled small cell lung cancer organoids were kept on ice for 30 minutes while being loosened by pipetting every 10 minutes. Next, approximately 1×10^5 of respective small cell lung cancer organoids was resuspended in about 50 μL of Matrigel, and the respective suspensions was subcutaneously injected into mice. As the mice, 6-10 weeks old NOD/Shi-scid, IL-2Rγ mice were used. Once the tumor diameter (long×short×height/2) was approximately 100-150 mm^3, the subjects were randomly divided into a drug administration group and a placebo treatment group. Each group was set as n≥3. Subsequently, linsitinib (50 mg/kg) was administered to the drug administration group, and vehicle was administered to the placebo treatment group once a day, 5 days a week, for a total of 5 weeks. Linsitinib was dissolved in 30% PEG400-0.5% tween80-5% propylene glycol (vehicle) and administered. Tumor diameter (major axis×short axis×height/2) was measured once a week.

[4] = system: KOR457 line (ASCL1 positive subtype, IGF-independent small cell lung cancer organoid); assay: Effect of IGF1R inhibitor in vivo: tumor volume in mice transplanted with KOR457 line; conditions: KOR457 (ASCL1-positive, IGF-independent) subcutaneous in NOD/Shi-scid, IL-2Rγ mice; 50 mg/kg once a day, 5 days a week, 5 weeks; vs vehicle
Procedure: as §1

Q: Which results are given for `C[C@]1(O)C[C@@H](c2nc(-c3ccc4ccc(-c5ccccc5)nc4c3)c3c(N)nccn32)C1` [IGF1R inhibitor, linsitinib]?
A: growth of organoids (number of living cells) [1]: inhibits the growth; induction of apoptosis (propidium iodide-positive and Annexin V-positive cells) [2]: induces apoptosis; tumor growth (tumor volume over time) [3]: tumor growth was suppressed; tumor growth (tumor volume over time) [4]: no effect
